Assay results as given in US20240190856A1, “MELANOCORTIN-4 RECEPTOR AGONIST” (LG CHEM, LTD., priority 2021, published 2024).
Structures can show the parent of a compound that is named as a salt.

What was measured:
[1] = target: T1, MC4R (melanocortin-4 receptor) (Homo sapiens, UniProt P32245); test: Luciferase assay (CRE-LUC, HEK MC4R-Luc cells); type: cell-based; settings: 5 h incubation, concentration inducing 50% of each agonist's own maximum luminescence
T1 construct: expressed in transfected cells
Protocol: In order to measure the agonist ability against MC4R (melanocortin-4 receptor), a cell line that permanently expresses the luciferase gene (CRE-LUC) under the control of MC4R and CRE (cAMP response element) was established. After a mammalian cell expression vector (pCDNA3 (Neo)) (Invitrogen) containing the MC4R gene was prepared, human embryonic kidney (HEK) cell lines were transformed by using Lipofectamine 2000 (Invitrogen) together with a vector (pCRE-Luc)(Stratagen) expressing a luciferase gene (CRE-LUC) under the control of a cAMP response element (CRE). Transformed cell lines (HEK MC4R-Luc) were incubated in a 37° C. incubator in the presence of 5% CO2 for 24 hours by using Dulbecco's Modified Eagles Medium (DMEM) containing 10% Heat-Inactivated Fetal Bovine Serum (GIBCO/BRL). The cell lines were incubated for four days in the presence of Dulbecco's Modified Eagles Medium (DMEM) containing 10 ml of selection medium (10% Heat-Inactivated Fetal Bovine Serum (GIBCO/BRL), 100 unit/ml of penicillin (GIBCO/BRL), 100 unit/ml of streptomycin (GIBCO/BRL), 800 μg/ml of Geneticin (G418) (GIBCO/BRL). The process of removing cells killed by the selection medium by replacing the medium with 10 ml of a new selection medium was repeated three times, once every 4 days. Individual colonies formed by the finally selected and propagated clones were transferred under a microscope to a 24-well cell culture plate containing 1 ml of selection medium per well and incubated for 4 days. Forskolin (SIGMA) was treated to a final concentration of 10 μM, and then incubated for five hours in a 37° C. incubator in the presence of 5% CO2. Each well was treated with 50 μl of a Bright-Glo luciferase reagent (Promega) and left at room temperature for 15 minutes, and then the luminescence of each well was measured by using a luminometer (Victor).
HEK MC4R-Luc cells were added to each well of a 96-well luminometer cell culture plate (Costar) to a size of 2.5×10^4 cells in 100 μl of a culture medium and then incubated in a 37° C. incubator in the presence of 6% CO2 for 18 hours. […] Each well was treated with 50 μl of a Bright-Glo luciferase reagent (Promega) and left at room temperature for five minutes, and then the luminescence of each well was measured by using a luminometer (Victor). […] EC0.5 MSH is expressed as a concentration that induces 50% of the maximum amount of luminescence that can be induced by NDP-α-MSH, and EC50 is expressed as a concentration that induces 50% of the maximum amount of luminescence that can be induced by each agonist. The measurements were measured using statistical software (Prizm).

[2] = target: MC4R (Homo sapiens, UniProt P32245); test: Binding affinity (125I-NDP-α-MSH displacement, membranes of HEK-293 cells expressing MC4R); set-up: expressed in transfected cells; host or cells: HEK-293 cells, membrane preparation; settings: 0.02 nM 125I-NDP-α-MSH, 37° C. for two hours, pH 7.0
Excerpt: Five subtypes of melanocortin receptor (MCR) in vivo are known, and it is known that MC4R, which is Subtype 4, is involved in energy metabolism and weight control. Since other MCR subtypes are involved in the regulation of various functions in vivo such as skin pigmentation, energy homeostasis, and exocrine functions, securing selectivity for MC4R of MC4R agonist compounds is very important in preventing possible side effects in the future. Therefore, the receptor binding abilities of MC4R agonists for each MCR subtype were measured.
After the CHO-K 1 cell line expressing human recombinant MC1R and the HEK-293 cell lines expressing MC3R, MC4R and MC5R were established, membranes were collected from each cell line. In a 96-well cell culture plate, 3 μg MC1R membrane and 0.04 nM ^125I-NDP-α-MSH per well were reacted at 37° C. for two hours. 3 μg MC3R and MC5R membrane and 0.035 nM ^125I-NDP-α-MSH were reacted at 37° C. for one hour, and […] MC4R membrane and 0.02 nM ^125I-NDP-α-MSH were reacted at 37° C. for two hours. At this time, 25 mM HEPES-KOH adsorption buffer (pH 7.0) containing MCR agonist diluted at each step concentration was added to each well and reacted. The reacted solution was transferred to a filter and washed with an adsorption buffer, and then radioactivity was measured. The value excluding the non-specific binding amount in the presence of 1 μM (MC1R) and 3 μM (MC3R, MC4R, MC5R) of NDP-α-MSH from each total binding amount was used as specific binding amounts of ^125I-NDP-α-MSH. The degree to which the ^125I-NDP-a-MSH specific binding was inhibited by the agonist diluted at each step concentration was measured. IC50 was expressed as the concentration of each agonist that inhibited specific binding of 50% of ^125I-NDP-α-MSH.
Tables 4-1 and 4-2 show the results of measuring the binding of melanocortin receptors of the compounds obtained by the above experiment in Ki (nM) units.

Chain of MC4R (P32245 whole entry): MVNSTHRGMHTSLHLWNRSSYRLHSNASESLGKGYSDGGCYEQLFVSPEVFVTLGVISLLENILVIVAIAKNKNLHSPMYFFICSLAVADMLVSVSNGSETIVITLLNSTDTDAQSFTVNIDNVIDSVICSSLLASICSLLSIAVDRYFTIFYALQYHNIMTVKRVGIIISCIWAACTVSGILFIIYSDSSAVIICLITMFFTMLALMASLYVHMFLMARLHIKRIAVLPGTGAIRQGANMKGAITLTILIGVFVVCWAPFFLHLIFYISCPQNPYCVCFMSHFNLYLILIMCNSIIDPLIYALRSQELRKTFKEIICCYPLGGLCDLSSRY
T1 sequence (P32245 whole entry, species assumed): as the sequence (P32245 whole entry) above

Structure (SMILES): CC(=O)N(C1CCC(C)(C)CC1)[C@H]1C[C@@H](C(=O)N2CCOCC2)N(C(=O)[C@@H]2CN(C(C)(C)C)C[C@H]2c2ccc(F)cc2F)C1 [Comparative Example 1 (A95), N-((3S,5S)-1-((3S,4R)-1-(tert-butyl)-4-(2,4-difluorophenyl)pyrrolidine-3-carbonyl)-5-(morpholine-4-carbonyl)pyrrolidin-3-yl)-N-(4,4-dimethylcyclohexyl)acetamide hydrochloride, reference compound]
- EC50 [1]: 14.7 nM
- Ki ([2]; Table 4-1): 1450 nM
- Ki ([2]; Table 4-2): 1780 nM

Structure (SMILES): CC(=O)N(C1CCC(C)(C)CC1)[C@H]1C[C@@H](C(=O)N2CCOCC2)N(C(=O)[C@@H]2CN(C(C)(C)C)C[C@H]2c2ccc(Cl)cc2)C1 [Comparative Example 2 (A96), N-((3S,5S)-1-((3S,4R)-1-(tert-butyl)-4-(4-chlorophenyl)pyrrolidine-3-carbonyl)-5-(morpholine-4-carbonyl)pyrrolidin-3-yl)-N-(4,4-dimethylcyclohexyl)acetamide hydrochloride, reference compound]
- EC50 [1]: 5.61 nM
- Ki ([2]; Table 4-1): 410 nM
- Ki ([2]; Table 4-2): 530 nM

Structure (SMILES): CC(C)C(=O)N(C1CCC(C)(C)CC1)[C@H]1C[C@@H](C(=O)N2CCOCC2)N(C(=O)[C@@H]2CN(C(C)(C)C)C[C@H]2c2ccc(Cl)cc2)C1 [Example 5, N-((3S,5S)-1-((3S,4R)-1-(tert-butyl)-4-(4-chlorophenyl)pyrrolidine-3-carbonyl)-5-(morpholine-4-carbonyl)pyrrolidin-3-yl)-N-(4,4-dimethylcyclohexyl)isobutyramide hydrochloride]
- EC50 [1]: 3.82 nM
